In patent US7425635B2, “Prodrugs and conjugates of thiol- and selenol-containing compounds and methods of use thereof” (University of Utah Research Foundation, priority 1997, dated 2008):
Where two headings read alike, the source gives them in different places. Marks after values point to notes of the source that are not given here.

Tests used:
E. coli AB1157 [1] = test: Toxicity in E. coli AB1157 (colony forming ability); assay type: cell-based
Experimental: (§1) A well characterized bacterial system was used as an initial screen for radioprotective activity of the novel compounds. A single colony of the bacteria, growing on a plate of LB medium (10 g tryptone, 5 g yeast extract, plus 5 g NaCl in 1 L water), was inoculated into 2 mL LB and incubated overnight. 20 mL LB medium were then inoculated with 600 μL of the overnight culture, and incubated with shaking at 37° C., 250 rpm. The cells were collected and washed with phosphate buffered saline. At this point the bacteria could be irradiated, treated with drug, etc., as outlined below. After dilution of the treated cells to 100 cells per 100 μL, they are plated out and incubated overnight. Cell viability is then measured by colony forming ability.
The toxicity of the compounds of interest in this system was explored.

E. coli AB1157 [2] = test: Radioprotection in E. coli AB1157; assay type: cell-based; conditions: E. coli AB1157, agent 1 hour before irradiation at 0.6 kGy
Experimental: Radioprotection in E. coli AB1157
as §1
Growth curves were generated for the bacteria in the absence of any treatment to provide experience with basic handling as well as important baseline information. The radiation dose response of the system was investigated irradiating bacterial cultures in a Shepherd Mark I ^137Cs irradiator over a dose range of 0 to 1 kGy. The dose-response curves are linear and reproducible from day to day.
Radioprotection experiments were also conducted in the bacterial system. […] Surviving fraction compared to that seen in control (untreated) cells, which were not irradiated, was then calculated.

[3] = Body weight gain and liver weight in four-month feeding study; assay type: in vivo; conditions: mice, diet 15 ppm Se, NNK
Experimental: (§2) Where indicated, mice (16 g) were given diets fortified with SCA, MSCA or OSCA (15 ppm Se) for 1 week prior to NNK (10 umol, ip). Two other groups received the unmodified AIN-76A diet, with and without NNK administration. All groups were maintained on their pretreatment diet until the animals were sacrificed after 16 weeks. Liver GPx activity is expressed as μmol NADPH oxidized [in regenerating GSH]/min/mg 10,000 g×20 min supernatant protein; RBC activity as μmol/min/mg RBC lysate hemoglobin.

GPx [4] = test: Hepatic and RBC (tButylOOH) GPx activity in four-month feeding study; assay type: in vivo; conditions: mice, diet 15 ppm Se, NNK
Experimental: Three novel selenazolidines, 2-methyl-, 2-oxo- and 2-unsubstituted (i.e., selenaproline) selenazolidine-4[R]-carboxylic acid (MSCA, OSCA, and SCA respectively) that had been synthesized as prodrugs of selenocysteine were evaluated for their potential to act as cancer chemopreventive agents. [Se] and GPx activity were evaluated.
as §2

Gst-mu = test: Northern blot of liver Gst-mu mRNA after ip dosing; assay type: in vivo, mice; conditions: mean ± SEM
Experimental: (§3) Linking efficacy to biochemical parameters and a mechanism was limited in the initial study by only two parameters, [Se] and GPx activity. The in-vivo effects of selenazolidine compounds were then evaluated using, in addition to GPx, glutathione S-transferases (GSTs), quinone oxidoreductases (NQORs), UDP-glucuronosyltransferases (UGTs), and microsomal epoxide hydrolase (mEH). To investigate transcriptional changes of these classes of enzymes, it was necessary to develop a battery of cDNA probes for use in Northern blot analysis of RNA extracted from treated animals (Table 2).
(§4) Whether the selenaproline compounds had the ability to up-regulate the transcription of Phase II and/or other “protective” enzymes was first evaluated following a single dose of each (Table 3). […] The experiment was repeated but with a 7-day treatment regimen (Table 4), the time period for which the compounds were given in the diet before NNK administration in the tumor experiment reported in Table 1. […] With multiple doses, SCA induced Ugt1a9, an mRNA that was not changed with a single dose. […] The elevation in the Gst-mu transcript was unique to multiple OSCA treatment. The elevation of the GST-alpha mRNA was also seen with SCA treatment. Microsomal epoxide hydrolase mRNA was robustly elevated by multiple doses of all three selenaproline compounds, an effect not anticipated from the single dose experiment where not even minor changes were apparent.

Gst-alpha = test: Northern blot of liver Gst-alpha mRNA after ip dosing; assay type: in vivo, mice; conditions: mean ± SEM
Experimental: as §3, §4

mEH = test: Northern blot of liver mEH mRNA after ip dosing; assay type: in vivo, mice; conditions: mean ± SEM
Experimental: as §3, §4

GPx [5] = test: Hepatic cytosolic GPx (H202) activity after 7 daily ip doses; assay type: in vivo, mice; conditions: 7 daily doses ip, hepatic cytosol; naive 894 ± 36
GPx [6] = test: Northern blot of liver GPx mRNA after ip dosing; assay type: in vivo, mice; conditions: mean ± SEM
Experimental: as §3, §4

GST = test: Hepatic cytosolic GST (CDNB) activity after 7 daily ip doses; assay type: in vivo, mice; conditions: 7 daily doses ip, hepatic cytosol; naive 5248 ± 503
Ugt1a6 = test: Northern blot of liver Ugt1a6 mRNA after ip dosing; assay type: in vivo, mice; conditions: mean ± SEM
Experimental: as §3, §4

[7] = sALT (hepatotoxicity) after 7 daily ip doses; assay type: in vivo; parameters: unit not given here; conditions: 7 daily doses ip, 1.25 mg Se/kg, with corn oil; untreated mice 37.5 ± 2.9
Excerpt: (§5) Many of the mRNA changes seen with a single dose were not sustained with multiple dosing. Changes in Ugt transcripts after multiple dosing were noticeably absent. Unique to BSCA among the four new compounds investigated was its ability to induce Gst-alpha, Gst-mu and GPx mRNAs. For the Gst-alpha transcripts, which appeared elevated by corn oil, the BSCA increase was much greater than the vehicle alone (8-fold versus 2-fold) and was statistically significant (p<0.05). BSCA shared with PhOHSCA the ability to elevate mEH mRNA.

[8] = system: 'protective' enzyme mRNAs; test: Northern blot of 'protective' enzyme mRNAs (all probes) after ip dosing; assay type: in vivo, mice; conditions: 7 daily doses ip, with corn oil
Experimental: as §3, §5

Ugt1a1 = test: Northern blot of liver Ugt1a1 mRNA after ip dosing; assay type: in vivo, mice; conditions: mean ± SEM
Experimental: as §3, §4

Ugt1a9 = test: Northern blot of liver Ugt1a9 mRNA after ip dosing; assay type: in vivo, mice; conditions: for Ugt1a9 mRNA: mean ± SEM
Experimental: as §3, §4

[9] = E. coli AB1157, cell viability by colony forming ability
[10] = 1 dose ip, 1.25 mg Se/kg, liver RNA 24 hours after dosing
[11] = 7 daily doses ip, 1.25 mg Se/kg, liver RNA 24 hours after the last dose
[12] = 1 dose ip, 1.25 mg Se/kg in corn oil, liver RNA 24 hours after dosing
[13] = 7 daily doses ip, 1.25 mg Se/kg, with corn oil, liver RNA 24 hours after the last dose

Compound: NCCCNCCS [WR-1065, reference compound]
- Toxicity in the bacterial system (E. coli AB1157 [1]; [9]): neither WR-1065 nor its 2-oxo prodrug produced any toxicity
- Radioprotection (surviving fraction) (E. coli AB1157 [2]): greatest amount of protection

Compound: O=C1N[C@H](C(=O)O)C[Se]1 [OSCA, 2-Oxoselenazolidine-4(R)-carboxylic acid]
- Body wt gain (%) [3]: 39.9* %
- Liver weight [3]: 1.02 ± 0.02 g
- RBC (tButylOOH) GPx (GPx [4]; RBC): 281 ± 24 μmol/min/mg RBC lysate hemoglobin
- Hepatic (tButylOOH) GPx (GPx [4]; liver): 518 ± 59 μmol NADPH oxidized/min/mg 10,
- Gst-mu mRNA (Gst-mu; [10]): 1.38 ± 0.33 fold change from naive
- Gst-alpha mRNA (Gst-alpha; [10]): 1.61 ± 0.53 fold change from naive
- mEH mRNA (mEH; [10]): 0.88 ± 0.19 fold change from naive
- mEH mRNA (mEH; [11]): 2.91 ± 1.48 fold change from naive
- GPx (H202) activity (GPx [5]): 880 ± 72 nmol/mg cytosol (100,000 g supernatant) protein/min
- GPx (1.5 kb) mRNA (GPx [6]; [10]): 0.80 ± 0.22 fold change from naive
- GPx mRNA (GPx [6]; [11]): 1.13 ± 0.39 fold change from naive
- GST (CDNB) activity (GST): 6887 ± 1142 nmol/mg cytosol (100,000 g supernatant) protein/min

Compound: O=C(O)C1C[Se]C(c2ccccc2)N1 (mixture of isomers) [PhSCA, 2-phenyl-SCAS]
- Ugt1a6 mRNA (Ugt1a6; [12]): 1.78 ± 0.54 fold change from naive
- Ugt1a6 mRNA (Ugt1a6; [13]): 0.96 ± 0.04 fold change from naive
- Gst-mu mRNA (Gst-mu; [12]): 0.74 ± 0.16 fold change from naive
- Gst-mu mRNA (Gst-mu; [13]): 1.01 ± 0.27 fold change from naive
- Gst-alpha mRNA (Gst-alpha; [12]): 0.63 ± 0.14 fold change from naive
- Gst-alpha mRNA (Gst-alpha; [13]): 2.29 ± 0.68 fold change from naive
- mEH mRNA (mEH; [12]): 0.98 ± 0.27 fold change from naive
- mEH mRNA (mEH; [13]): 0.80 ± 0.15 fold change from naive
- sALT [7]: 37.3 ± 1.4
- Induction of 'protective' enzyme mRNAs (any) [8]: failed to induce any mRNAs
- GPx mRNA (GPx [6]; [12]): 0.74 ± 0.16 fold change from naive
- GPx mRNA (GPx [6]; [13]): 1.46 ± 0.35 fold change from naive
- Ugt1a1 mRNA (Ugt1a1; [12]): 1.41 ± 0.30 fold change from naive
- Ugt1a1 mRNA (Ugt1a1; [13]): 1.32 ± 0.12 fold change from naive
- Ugt1a9 mRNA (Ugt1a9; [12]): 2.14 ± 0.54 fold change from naive
- Ugt1a9 mRNA (Ugt1a9; [13]): 0.83 ± 0.08 fold change from naive

Compound: NC1CCSC1=O (stereo not shown) [HCTL, homocysteine thiolactone]
- Radioprotection (surviving fraction) (E. coli AB1157 [2]): greatest amount of protection

Compound: NCCS [cysteamine, reference compound]
- Toxicity in the bacterial system (E. coli AB1157 [1]): profound toxicity

Compound: O=C1NCCS1 [2-oxocysteamine prodrug, 2-Thiazolidinone]
- Toxicity in the bacterial system (E. coli AB1157 [1]; [9]): completely eliminated the profound toxicity observed with cysteamine itself

Compound: NCCCN1CCSC1=O [2-oxo prodrug, 3-(3-Aminopropyl)-2-thiazolidinone]
- Toxicity in the bacterial system (E. coli AB1157 [1]; [9]): neither WR-1065 nor its 2-oxo prodrug produced any toxicity

Compound: 2-(2-hydroxyphenyl)-SCA [PhOHSCA]
- Ugt1a6 mRNA (Ugt1a6; [13]): 0.99 ± 0.14 fold change from naive
- Gst-mu mRNA (Gst-mu; [12]): 1.18 ± 0.32 fold change from naive
- Gst-mu mRNA (Gst-mu; [13]): 1.54 ± 0.23 fold change from naive
- Gst-alpha mRNA (Gst-alpha; [12]): 1.49 ± 0.22 fold change from naive
- Gst-alpha mRNA (Gst-alpha; [13]): 1.91 ± 0.71 fold change from naive
- mEH mRNA (mEH; [12]): 1.38 ± 0.48 fold change from naive
- sALT [7]: 42.4 ± 3.0
- GPx mRNA (GPx [6]; [13]): 1.51 ± 0.50 fold change from naive
- Ugt1a1 mRNA (Ugt1a1; [13]): 0.77 ± .04 fold change from naive
- Ugt1a9 mRNA (Ugt1a9; [12]): 1.65 ± 0.32 fold change from naive
- Ugt1a9 transcript expression compared to the corn oil effect (Ugt1a9; 1 dose ip, in corn oil, comparison with corn oil alone): significantly reduced
- Ugt1a9 mRNA (Ugt1a9; [13]): 1.06 ± .14 fold change from naive
